In ChEMBL document CHEMBL1129576, “Nucleosides and nucleotides. 158. 1-(3-C-ethynyl-beta-D-ribo-pentofuranosyl)-cytosine, 1-(3-C-ethynyl-beta-D-ribo-pentofuranosyl)uracil, and their nucleobase analogues as new potential multifunctional antitumor nucleosides with a broad spectrum of activity” (J Med Chem, 1996):

Key:
KB = assay: In vitro tumor cell growth inhibitory activity against human nasopharyngeal KB cell lines; type: functional, cell-based
L1210 = assay: In vitro tumor cell growth inhibitory activity against mouse leukemia L1210 cell lines.; type: functional, cell-based
Mus musculus [1] = assay: In vivo tumor cell growth inhibitory activity of H-81 tumor xenograft of stomach in nude mice at a concentration of 15 mg/kg for 15 days; type: functional
Mus musculus [2] = assay: In vivo tumor cell growth inhibitory activity against AZ-521 tumor xenograft of stomach in nude mice at a concentration of 15 mg/kg for 15 days; type: functional
Mus musculus [3] = assay: In vivo tumor cell growth inhibitory activity against DLD-1 tumor xenograft of […] in nude mice at a concentration of 15 mg/kg for 15 days; type: functional
Mus musculus [4] = assay: In vivo tumor cell growth inhibitory activity against H-31 cells tumor xenograft of breast in nude mice at a concentration of 15 mg/kg for 15 days; type: functional
Mus musculus [5] = assay: In vivo tumor cell growth inhibitory activity against Hucc-T1 cells tumor xenograft of bile duct in nude mice at a concentration of 15 mg/kg for 15 days; type: functional
Mus musculus [6] = assay: In vivo inhibitory activity against BxPC-3 tumor xenograft of pancreas in nude mice at a concentration of 15 mg/kg for 15 days; type: functional
Mus musculus [7] = assay: In vivo tumor cell growth inhibitory activity against JRC-11 cells tumor xenograft of renal in nude mice at a concentration of 15 mg/kg for 15 days; type: functional
Mus musculus [8] = assay: In vivo tumor cell growth inhibitory activity against KM12C tumor xenograft of […] in nude mice at a concentration of 15 mg/kg for 15 days; type: functional
Mus musculus [9] = assay: In vivo inhibitory activity against PAN-12 tumor xenograft of pancreas in nude mice at a concentration of 15 mg/kg for 15 days; type: functional
Mus musculus [10] = assay: In vivo tumor cell growth inhibitory activity of CO-3 tumor xenograft of […] in nude mice at a concentration of 15 mg/kg for 15 days; type: functional

**Q.** With `C#CC1(O)[C@@H](CO)O[C@@H](n2cnc3c(O)nc(N)nc32)[C@@H]1O` (single isomer, unassigned) as the compound, how does the IC50 (KB) read?
**A.** > 300000 nM

**Q.** What about the IC50 (L1210) of the same compound?
**A.** > 300000 nM

**Q.** Which IC50 (KB) does the source give for `C#CC1(O)[C@@H](CO)O[C@@H](n2cc(F)c(=O)[nH]c2=O)[C@@H]1O` (single isomer, unassigned) here?
**A.** 1400 nM

**Q.** What about the IC50 (L1210) of the same compound?
**A.** 2500 nM

**Q.** Which IC50 (KB) does the source give for `C#C[C@]1(O)[C@@H](CO)OC(n2cc(F)c(N)nc2=O)[C@@H]1O` (single isomer, unassigned) here?
**A.** 460 nM

**Q.** What about the IC50 (L1210) of the same compound?
**A.** 530 nM

**Q.** For `O=c1[nH]cc(F)c(=O)[nH]1` [FLUOROURACIL], which Inhibition ratio (Mus musculus [1]) is on record?
**A.** 83%

**Q.** And the Inhibition ratio (Mus musculus [2])?
**A.** 25%

**Q.** And the Inhibition ratio (Mus musculus [3])?
**A.** 50%

**Q.** What about the Inhibition ratio (Mus musculus [4]) of the same compound?
**A.** 68%

**Q.** And the Inhibition ratio (Mus musculus [5])?
**A.** 1%

**Q.** And the Inhibition ratio (Mus musculus [6])?
**A.** 50%

**Q.** What about the Inhibition ratio (Mus musculus [7]) of the same compound?
**A.** 69%

**Q.** And the Inhibition ratio (Mus musculus [8])?
**A.** 59%

**Q.** And the Inhibition ratio (Mus musculus [9])?
**A.** 40%

**Q.** And the Inhibition ratio (Mus musculus [10])?
**A.** 49%
